Assays:
[1] = test system: human MYD88; experiment: Phage display screening of TIR domain-derived peptide library against immobilized MyD88, NGS analysis after four rounds; format: binding; conditions: for NGS count: phages remaining after fourth round
Protocol: (§1) First, vector cloning was performed by synthesizing a DNA sequence for expressing each peptide belonging to the library constructed in Example 1. Vector cloning was performed using p3/p8 phagemids.
(§2) After the fourth round, the remaining phages were obtained by binding to the finally immobilized target proteins, and peptide sequences binding to the target and the relative distribution of each sequence were confirmed by performing NGS analysis on phagemids in the phages.

[2] = test system: human MAL; experiment: Phage display screening of TIR domain-derived peptide library against immobilized MAL, NGS analysis after four rounds; format: binding; conditions: for NGS count: phages remaining after fourth round
Protocol: as §1, §2

[3] = P8_MyD88: library displayed on P8 coat protein
[4] = P8_MyD88: relative distribution of the sequence in NGS
[5] = P8_MAL: library displayed on P8 coat protein
[6] = P8_MAL: relative distribution of the sequence in NGS
[7] = P3_MyD88: library displayed on P3 coat protein
[8] = P3_MyD88: relative distribution of the sequence in NGS
[9] = P3_MAL: library displayed on P3 coat protein
[10] = P3_MAL: relative distribution of the sequence in NGS

YLLLSVFQTIFARRTE
NGS count [1, 3]: 7165
Population [1, 4]: 2.76%

SEFIQKIILWMNPKIV
NGS count [2, 5]: 4458
Population [2, 6]: 1.38%

WFYERLVSLILRDTKV
NGS count [2, 5]: 79000
Population [2, 6]: 24.40%

YASYDDNDYYWVTHVLLRHL
NGS count [1, 3]: 5893
Population [1, 4]: 2.66%

PEKDNGGENAFINNIV
NGS count [1, 7]: 2498
Population [1, 8]: 0.73%

WFLFTVRSAIYAMSPA
NGS count [2, 5]: 3156
Population [2, 6]: 0.97%

LVAHEISKKMKIFATI
NGS count [1, 7]: 17452
Population [1, 8]: 5.08%
NGS count [2, 9]: 1671
Population [2, 10]: 0.63%

WFMMKFRTVLDHVNDV
NGS count [2, 5]: 2269

SLRKNLVSNLIEEFKR
NGS count [2, 9]: 3569
Population [2, 10]: 1.34%

YLRADDSWFWEKLLYA
NGS count [1, 3]: 4067
Population [1, 4]: 1.57%

RNNFIGHLYQALYRIG
NGS count [2, 5]: 3120
Population [2, 6]: 0.96%

DSLFWDRLLYSLHVTE
NGS count [1, 3]: 7586
Population [1, 4]: 2.92%

DHHLDLPRGKAIKPEILG
NGS count [1, 7]: 26722
Population [1, 8]: 7.78%
NGS count [2, 9]: 2280
Population [2, 10]: 0.86%

HHKGSYGEALAEHEKR
NGS count [2, 9]: 3056
Population [2, 10]: 1.15%

RGFLSHLRHHLQAKDH
NGS count [2, 9]: 15065
Population [2, 10]: 5.66%

SSFREGLWRLLELSKK
NGS count [1, 7]: 79510
Population [1, 8]: 23.15%
NGS count [2, 9]: 29955
Population [2, 10]: 11.26%

YLKWGYPWFWDRLRFA
NGS count [1, 7]: 7321
Population [1, 8]: 2.13%
NGS count [2, 9]: 1680
Population [2, 10]: 0.63%
NGS count [2, 5]: 517

VQWDDPWFWDKLAYAM
NGS count [1, 3]: 4902
Population [1, 4]: 1.89%

AWALHQLQQIINWHET
NGS count [2, 5]: 232
Population [2, 6]: 0.07%

RLLKWKEALHQFHSWV
NGS count [2, 9]: 14924
Population [2, 10]: 5.61%

TFLGHLYNALVQAGIH
NGS count [2, 5]: 24732
Population [2, 6]: 7.64%

YNFISHLYDALHRNRI
NGS count [1, 7]: 2891
Population [1, 8]: 0.84%
NGS count [2, 9]: 2678
Population [2, 10]: 1.01%

NQWRNALTAAANLSGW
NGS count [1, 7]: 28662
Population [1, 8]: 8.35%
NGS count [2, 9]: 25831
Population [2, 10]: 9.71%
NGS count [2, 5]: 848

TSHLHHALRLNKIETF
NGS count [1, 7]: 2076
Population [1, 8]: 0.60%

IDDDHLTYLVRLLLSR
NGS count [1, 3]: 3059
Population [1, 4]: 1.18%

AFLYTFLINLTHPTNF
NGS count [2, 5]: 51063
Population [2, 6]: 18.86%

KEVEGWRDALTKVASL
NGS count [1, 7]: 5187
Population [1, 8]: 1.80%
NGS count [2, 9]: 3758
Population [2, 10]: 1.41%

HQAFWNRLWAKLKPPT
NGS count [2, 9]: 1932
Population [2, 10]: 0.73%

SPQEQDGFWVRLIEAL
NGS count [1, 3]: 1842
Population [1, 4]: 0.71%

DPQDLQWFYERLVSLI
NGS count [1, 3]: 5730
Population [1, 4]: 2.21%

RNFVAYLFQALANKGI
NGS count [2, 5]: 27950
Population [2, 6]: 8.63%

KLFWEKFKEFFLPSLSR
NGS count [2, 5]: 4888
Population [2, 6]: 1.51%

WALQELVKILQAKIFL
NGS count [2, 5]: 227
Population [2, 6]: 0.07%

VANILGYHWIDWEYFV
NGS count [1, 3]: 2029
Population [1, 4]: 0.78%

SENYATSPWALDELVL
NGS count [1, 7]: 5494
Population [1, 8]: 1.89%

DPQDLDWFYERLVSLL
NGS count [1, 3]: 13137
Population [1, 4]: 5.06%

LQNQWKLALTKVANLV
NGS count [2, 9]: 2285
Population [2, 10]: 0.86%

DWVWDYLLPNLEGPAG
NGS count [1, 3]: 19394
Population [1, 4]: 7.47%

YAASPWWFDELVKIVG
NGS count [1, 3]: 3433
Population [1, 4]: 1.32%

WALDELLQILHARELF
NGS count [1, 3]: 14404
Population [1, 4]: 5.55%

FLNFRGLDVRNYFLGH
NGS count [2, 9]: 2855
Population [2, 10]: 1.07%

FTLAVHVRNWLVGGFI
NGS count [2, 5]: 520

YYLDPSHLRKQSGEFG
NGS count [1, 7]: 2538
Population [1, 8]: 0.74%

AVDKETDKIQTPLKNA
NGS count [1, 7]: 4790
Population [1, 8]: 1.39%

KLIQGWFLYRLLKIEQ
NGS count [2, 5]: 2068

KMQKWKDALYEAANLS
NGS count [2, 9]: 4427
Population [2, 10]: 1.66%

DPQDLEWFYERLFSQM
NGS count [1, 3]: 4488
Population [1, 4]: 1.73%

DFLNWFIALKSTVIEN
NGS count [2, 5]: 867

PQDLEWFYERLVSLIL
NGS count [1, 3]: 10568
Population [1, 4]: 4.07%

KWFWDKLIYALSRNPH
NGS count [2, 9]: 2796
Population [2, 10]: 1.05%

LGYHWIDWEYFVGIED
NGS count [1, 3]: 25216
Population [1, 4]: 9.72%

SELRVVDDGSVSPLEM
NGS count [1, 7]: 4872
Population [1, 8]: 1.42%

DPQDLDWFYERLVSLF
NGS count [1, 3]: 54757
Population [1, 4]: 21.10%

LFFWESLKQLLRSDGR
NGS count [2, 5]: 22560
Population [2, 6]: 5.97%

YFLHFLLFSRPETEYI
NGS count [2, 5]: 17198
Population [2, 6]: 5.31%

GLSWGPYEWWMGLYDA
NGS count [1, 3]: 1965
Population [1, 4]: 0.76%

AFFWEQLRTVLGKPTM
NGS count [2, 5]: 11826
Population [2, 6]: 3.65%

KFIWDIINAISSQIRV
NGS count [2, 5]: 146

FLSYRALEKRFGPIGQ
NGS count [1, 7]: 3289
Population [1, 8]: 0.96%

WFLTAFRMAMDQVADT
NGS count [2, 5]: 353

HFFWIQLKSILGETSF
NGS count [2, 5]: 3624
Population [2, 6]: 1.12%

LEANDSLFWDRLLYSL
NGS count [1, 3]: 1465
Population [1, 4]: 0.56%

VEPTQVRKQSGAVENA
NGS count [2, 9]: 2283
Population [2, 10]: 0.86%

HLLKEFDKKLITAFKD
NGS count [1, 7]: 2399
Population [1, 8]: 0.70%

NGHESEIIKEIVDTIV
NGS count [1, 7]: 4233
Population [1, 8]: 1.23%

AYANFRQGLLRLLELA
NGS count [2, 5]: 466

WALDELLKILYANETM
NGS count [1, 3]: 10515
Population [1, 4]: 4.05%

YASSSWALDELLRILY
NGS count [1, 3]: 2327
Population [1, 4]: 0.90%

DWVWEHFFPMEEKDQT
NGS count [1, 3]: 1538
Population [1, 4]: 0.59%

SLLYDHLRWLGIRAFL
NGS count [2, 5]: 2576
Population [2, 6]: 0.80%

SAAYDDFWDRLIRMIE
NGS count [1, 3]: 5335
Population [1, 4]: 2.06%

HWIDWEYFVGIEDHIK
NGS count [1, 3]: 3422
Population [1, 4]: 1.32%

MFGGDTFHDFLDLISM
NGS count [1, 3]: 1489
Population [1, 4]: 0.57%

PNLRTKVLNYLMRTKT
NGS count [2, 9]: 26931
Population [2, 10]: 10.12%

YLISYIFNELARAGFS
NGS count [2, 5]: 295
Population [2, 6]: 0.09%

DWFLSKLSQHILKREK
NGS count [2, 9]: 4580
Population [2, 10]: 1.72%

SFFWNKLRYHLPAPQH
NGS count [2, 9]: 2297
Population [2, 10]: 0.86%

WDFASNMEQFWDRLYY
NGS count [1, 3]: 7352
Population [1, 4]: 2.83%

PSEVRKQTGSLAKAFA
NGS count [1, 7]: 2253
Population [1, 8]: 0.66%

AFFWAQLKSVLGNPTM
NGS count [2, 5]: 28801
Population [2, 6]: 8.90%

DYASSTWWLRELLQIA
NGS count [1, 3]: 4111
Population [1, 4]: 1.58%

YTALTNSGFHTFRDND
NGS count [1, 7]: 17600
Population [1, 8]: 5.12%

RKGDLISDELLIAIEE
NGS count [1, 7]: 2452
Population [1, 8]: 0.71%
